# What was measured:
# [1] = target: T1, BTK C481A mutant (Homo sapiens, UniProt Q06187, C481A); test: Fluorescent labelling of BTK C481A mutant in HEK293 cells; type: cell-based; conditions: 1 h
# T1 construct: expressed in transfected cells; host or cells: HEK293 (methods list HEK293T)
# Text: (§1) The antibodies to β-actin (5125), poly(ADP-ribose) polymerase (PARP) (9532S), cleaved caspase-3 (9661S), BTK (8547), PLCγ2(55512), ERK1/2 (9107), phospho-PLCγ2 (Tyr1217) (3871), phospho-BTK (Tyr223) (87457), and ERK1/2 pT202/pY204 (4377) were purchased from Cell Signaling Technology. An Annexin V-PE Apoptosis Detection Kit (555763), and PE mouse anti-human CD69 (555531), PE mouse anti-human CD3 (555340), and PE mouse anti-human CD19 (561741) were purchased from BD Bioscience. Dynabeads® Human T-Activator CD3/CD28 (11161D) was purchased from Life Technology. Goat anti-human IgM F(ab)2 (2022) was purchased from SouthernBiotech. An HTRF® KinEASE™-TK Kit (62TK0PEC) was purchased from Cisbio. […]
# (§2) Cells were treated as indicated before the addition of a fluorescent probe (FL-SY-1530). […] After scanning, the gels were detected with Western blot.
# (§3) Figure 2 Irreversible targeting of BTK by SY-1530. […] (B) The content of the compounds was measured with LC-MS/MS after incubation with BTK for 4 h. […] (D) DOHH2 cells were treated with various concentrations of FL-SY-1530 for 1 h, after which cells were lysed and analyzed by SDS-PAGE with the indicated antibodies and fluorescent gel scanning with a Typhoon imaging system. […] (F) HEK293 cells expressing wild-type or C481A mutant BTK were treated with FL-SY-1530 or FL-ibrutinib for 1 h, and the cells were then lysed and analyzed. […]
# [2] = target: T2, BTK wild-type (Homo sapiens, UniProt Q06187); test: Fluorescent labelling of wild-type BTK in HEK293 cells; type: cell-based; conditions: 1 h
# T2 construct: expressed in transfected cells; host or cells: HEK293 (methods list HEK293T)
# Text: as §1, §2, §3
# [3] = tested on: Pfeiffer; test: Cell viability assay (CellTiter-Blue), Pfeiffer; type: cell-based, human; conditions: Homo sapiens; Pfeiffer cells; read-out: IC50 (nM), growth of Pfeiffer
# Experimental: (§4) Cells were seeded on 96-well plates (9,000 cells/well), cultured at 37 °C in 5% CO2 overnight, and incubated with different concentrations of compounds for 3 or 7 days. Then the cells were stained with CellTiter-Blue® reagent (Promega) for 4 h at 37 °C. The fluorescence signals were detected with a FlexStation 3, and the IC50 values of each compound were determined with GraFit software (Version 6.0).
# [4] = tested on: TMD8; test: Cell viability assay (CellTiter-Blue), TMD8; type: cell-based, human; conditions: Homo sapiens, TMD8, read-out: IC50 (nM), growth of TMD8
# Experimental: as §4
# [5] = tested on: TMD8 xenografts; test: TMD8 tumor xenograft in SCID mice; type: in vivo
# Experimental: TMD8 cells (1.0 × 10^7 cells in 100 µL of serum-free medium containing 40% Matrigel) were injected subcutaneously into SCID mice (6–8 weeks of age), and the tumor volume was monitored twice per week. […] The compounds were formulated in 0.5% methylcellulose containing 0.1% sodium lauryl sulfate. Tumor size and body weight were measured twice per week. All experiments were approved by the institutional animal care and use committee of Shouyao Holdings and were performed in accordance with the guidelines in the U.S. National Institutes of Health Guide for the Care and Use of Laboratory Animals (Approval No. CTA-2015063).
# Figure 5 SY-1530 inhibits B-cell malignancy in vivo. (A–D) TMD8 cells were injected subcutaneously into SCID mice (6–8 weeks of age; 8 mice per group). […] Tumor size (A) and body weight (B) were measured […]. On the last day, mice were sacrificed 2.5 h after administration. LC-MS/MS was performed to measure the concentration of SY-1530 in plasma (C), and tumor samples were collected and analyzed with Western blot (D). QD represents administration once daily. Data are shown as mean ± SEM. Statistical analysis was performed with two-way analysis of variance (*P < 0.05; **P < 0.01; ***P < 0.001). […] Tumor size (E), body weight (F), SY-1530 concentration in the plasma (G), and protein expression in tumors (H) were measured. Data are shown as mean ± SEM. Statistical analysis was performed with two-way analysis of variance (*P < 0.05; **P < 0.01; ***P < 0.001).
# [6] = tested on: human peripheral T cells; test: CD69 up-regulation in T cells after anti-CD3/CD28 stimulation; type: cell-based
# Experimental: (§5) CD19^+ B (>80% purity) and CD3^+ T (>90% purity) cells were purified with human B cell enrichment cocktail and human T cell enrichment cocktail (Stem Cell Technology), respectively. Cells were seeded on 12-well plates and incubated with different concentrations of BTK inhibitors for 1 h. B cells were stimulated with 50 µg/mL anti-human IgM F(ab′)2, and T cells were stimulated with 50 µg/mL anti-CD3/CD28 beads overnight. In the washout groups, the cell medium containing the indicated inhibitors was replaced with fresh medium before stimulation. Then cells were then incubated with anti-human CD69 for 1 h and analyzed with a Guava flow cytometer.
# (§6) Figure 4 SY-1530 blocks B-cell receptor signaling and induces apoptosis. (A–D) Human B and T cells were purified and incubated with different concentrations of BTK inhibitors for 1 h. B cells were stimulated with 50 μg/mL anti-human IgM F(ab′)2, and T cells were stimulated with 50 μg/mL anti-CD3/CD28 beads overnight directly or after washout of BTK inhibitors before stimulation. The percentage of CD69 positive cells was analyzed by flow cytometry. Data are shown as the mean ± SEM (n = 3). Statistical analysis was performed with Student’s t-test (*P < 0.05, **P < 0.01, ***P < 0.001). (E) Pfeiffer cells and Romas cells were preincubated with different concentrations of compounds for 1 h, washed with PBS, and then stimulated with anti-IgM/anti-IgG (10 μg/mL) for 10 min. Cells were lysed and analyzed by Western blot with the indicated antibodies. (F) Pfeiffer cells were treated with various concentrations of SY-1530 for 24 h. The cells were stained with both PE-Annexin and 7-AAD and analyzed by flow cytometry. Data are shown as the mean ± SEM (n = 3). Statistical analysis was performed with Student’s t-test (*P < 0.05, **P < 0.01). (G) Pfeiffer cells were incubated with BTK inhibitors in the presence of z-VAD-fmk (caspase inhibitor) or DMSO for 24 h. Cells were lysed and analyzed with specific antibodies.
# [7] = tested on: human peripheral B cells; test: CD69 up-regulation in B cells after anti-IgM stimulation; type: cell-based
# Experimental: as §5, §6
# [8] = tested on: B cell; test: Cell viability assay (CellTiter-Blue), human B cells; type: cell-based; conditions: B-cell, read-out: IC50 (nM), growth of B cell
# Experimental: as §4, §5
# [9] = tested on: T cell; test: Cell viability assay (CellTiter-Blue), human T cells; type: cell-based; conditions: T-cell, read-out: IC50 (nM), growth of T cell
# Experimental: as §4, §5
# T1 sequence (Q06187 whole entry C481A): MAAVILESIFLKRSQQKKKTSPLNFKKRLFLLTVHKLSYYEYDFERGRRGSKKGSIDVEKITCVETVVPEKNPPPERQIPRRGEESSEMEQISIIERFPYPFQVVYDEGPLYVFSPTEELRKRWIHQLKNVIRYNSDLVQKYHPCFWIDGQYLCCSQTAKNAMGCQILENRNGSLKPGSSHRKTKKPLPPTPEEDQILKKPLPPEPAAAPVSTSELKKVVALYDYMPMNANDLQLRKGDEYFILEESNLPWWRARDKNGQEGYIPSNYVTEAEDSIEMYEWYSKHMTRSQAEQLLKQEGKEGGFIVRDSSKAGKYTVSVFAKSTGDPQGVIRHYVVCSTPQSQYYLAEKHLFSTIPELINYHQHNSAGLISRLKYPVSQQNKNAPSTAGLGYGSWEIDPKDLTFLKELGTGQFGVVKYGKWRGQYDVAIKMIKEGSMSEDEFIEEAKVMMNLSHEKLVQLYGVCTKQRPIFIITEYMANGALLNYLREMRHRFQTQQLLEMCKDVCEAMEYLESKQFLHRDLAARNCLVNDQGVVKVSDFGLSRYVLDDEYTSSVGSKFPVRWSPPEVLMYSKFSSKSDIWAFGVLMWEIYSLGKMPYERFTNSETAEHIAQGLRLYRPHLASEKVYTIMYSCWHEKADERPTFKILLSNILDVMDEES
# T2 sequence (Q06187 whole entry): as the sequence (Q06187 whole entry C481A) above, with A481C counted along it
Structure (SMILES),Binding of labelled compound to BTK C481A mutant [1],Binding of labelled compound to wild-type BTK [2],IC50 [3] [nM],IC50 [4] [nM],Mouse bodyweight ([5]; BID groups),"Tumor growth versus vehicle treated group ([5]; BID, SY-1530 30 or 10 mg/kg, ibrutinib 30 mg/kg)",Up-regulation of CD69 in T cells ([6]; after washout of BTK inhibitors),"CD69 up-regulation after T cell receptor stimulation ([6]; continuous exposure, 10 µM)","Up-regulation of CD69 in B cells after anti-IgM ([7]; continuous exposure, 10 nM)",Up-regulation of CD69 in B cells after anti-IgM ([7]; inhibitors washed out before BCR stimulation),IC50 [8] [nM],IC50 [9] [nM]
CC1=CC(C)=[N+]2C1=Cc1ccc(CCC(=O)NCCN3CCN(CC=CC(=O)N4CCC(n5nc(-c6ccc(Oc7ccccc7)cc6)c(C(N)=O)c5N)C4)CC3)n1[B-]2(F)F (centres unmarked) [FL-SY-1530],not the C481A mutant,bound the wild-type BTK,–,–,–,–,–,–,–,–,–,–
"C=CC(=O)N1CCC[C@@H](n2nc(-c3ccc(Oc4ccccc4)cc3)c3c(N)ncnc32)C1 [ibrutinib, reference compound]",–,–,45.9,17.3,moderate decrease,dramatically lower,not affected,significantly abrogated,completely abolished,blocked,0.85,1000 to 10000
"CC1=CC(C)=[N+]2C1=Cc1ccc(CCC(=O)NCCN3CCN(CC=CC(=O)N4CCCC(n5nc(-c6ccc(Oc7ccccc7)cc6)c6c(N)ncnc65)C4)CC3)n1[B-]2(F)F (centres unmarked) [FL-ibrutinib, reference compound]",not the C481A mutant,bound the wild-type BTK,–,–,–,–,–,–,–,–,–,–
